Tests used:
[1] = target: T1, Pp-CI (flavin site; NDUFV1) (Komagataella pastoris, UniProt E1UWA7); assay: NADH:APAD+ and NADH:O2 oxidoreduction, absorbance […]-380 nm; assay type: biochemical; details: 100 μM NADH with 500 μM APAD+ or 200 μM NADH with Q10/AOX; pH 7.5, 32°C
T1 construct: gene nubm; native mitochondrial complex I, 44 subunits, purified in LMNG, in cMSP26 nanodiscs or proteoliposomes; with NADH-ubiquinone oxidoreductase 24 kDa subunit, mitochondrial; NADH-ubiquinone oxidoreductase 75 kDa subunit, mitochondrial
T1 sequence (E1UWA7 17-473): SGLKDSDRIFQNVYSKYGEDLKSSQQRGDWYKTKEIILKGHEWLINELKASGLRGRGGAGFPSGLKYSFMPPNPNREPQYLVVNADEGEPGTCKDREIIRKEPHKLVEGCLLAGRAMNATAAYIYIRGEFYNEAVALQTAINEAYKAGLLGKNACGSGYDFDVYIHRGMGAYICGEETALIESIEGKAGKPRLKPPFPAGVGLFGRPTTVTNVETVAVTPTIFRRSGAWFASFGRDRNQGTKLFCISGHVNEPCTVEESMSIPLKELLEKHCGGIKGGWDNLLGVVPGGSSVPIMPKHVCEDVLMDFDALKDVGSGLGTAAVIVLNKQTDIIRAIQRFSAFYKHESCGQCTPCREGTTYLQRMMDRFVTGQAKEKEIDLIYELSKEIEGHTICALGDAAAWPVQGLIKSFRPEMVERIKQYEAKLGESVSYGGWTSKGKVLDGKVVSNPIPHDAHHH

[2] = target: T1, Pp-CI (flavin site; NDUFV1); assay: cryo-EM structure; assay type: binding; details: state 1, closed, 2.8 Å
[3] = target: T1, Pp-CI (flavin site; NDUFV1); assay: NADH:APAD+ oxidoreduction in proteoliposomes; assay type: biochemical; details: 500 μM APAD+, 100 μM NADH; pH 7.5, 32°C
Pp-CI (Q10-binding site) = target: T2, Pp-CI (Q10-binding site) (Komagataella pastoris, UniProt E1UWA8+E1UWB5+E1UWC2); assay: NADH:O2 oxidoreduction with AOX, nanodiscs; assay type: biochemical; details: 200 μM NADH; Q10 in bilayer; pH 7.5, 32°C
T2 construct: gene nucm; native mitochondrial complex I, 44 subunits, purified in LMNG, in cMSP26 nanodiscs or proteoliposomes; with NADH-ubiquinone oxidoreductase 51 kDa subunit, mitochondrial; NADH-ubiquinone oxidoreductase 24 kDa subunit, mitochondrial

NDUFA9 subunit of Pp-CI = target: T3, NDUFA9 subunit of Pp-CI (Komagataella pastoris, UniProt E1UWA9); assay: cryo-EM structure; assay type: binding; details: state 1, closed, 2.8 Å
T3 construct: gene nuem; supernumerary subunit within native 44-subunit mitochondrial complex I in cMSP26 nanodiscs
T3 sequence (E1UWA9 36-384): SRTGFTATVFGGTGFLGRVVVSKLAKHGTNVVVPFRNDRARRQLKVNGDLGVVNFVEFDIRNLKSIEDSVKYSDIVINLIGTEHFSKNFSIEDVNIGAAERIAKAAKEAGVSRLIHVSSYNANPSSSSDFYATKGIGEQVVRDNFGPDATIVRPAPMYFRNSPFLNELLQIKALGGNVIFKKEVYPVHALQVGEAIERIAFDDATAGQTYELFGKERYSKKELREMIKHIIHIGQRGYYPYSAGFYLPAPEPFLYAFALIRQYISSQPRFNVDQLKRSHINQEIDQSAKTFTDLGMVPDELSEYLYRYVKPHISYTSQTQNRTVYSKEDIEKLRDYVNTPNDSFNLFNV

[4] = target: Pichia pastoris complex I (NADH:ubiquinone oxidoreductase), the 43 subunits other than NUQM, with the flavoprotein subcomplex (Pichia pastoris (endogenous in strain X-33)); assay: cryo-EM structure; Pp-CI purified in LMNG and reconstituted into cMSP26 nanodiscs with DOPC:DOPE:CDL and Q10, 10 mM Mops pH 7.5, 50 mM KCl; Titan Krios 300 kV; particles classified into four states (state 1 closed with NUQM 2.80 A; state 3 open without NUQM 3.34 A)
[5] = target: Pichia pastoris complex I (NADH:ubiquinone oxidoreductase), the 43 subunits other than NUQM, with the flavoprotein subcomplex (Pichia pastoris (endogenous in strain X-33)); assay: cryo-EM structure; Pp-CI reconstituted into proteoliposomes (Pp-CI-PLs), 10 mM Mops pH 7.5, 50 mM KCl; Talos Arctica 200 kV; focused 3D classification on NUQM and on the flavoprotein; NUQM-bound map 4.7 A

NC(=O)C1=CN([C@@H]2O[C@H](COP(=O)(O)OP(=O)(O)OC[C@H]3O[C@@H](n4cnc5c(N)ncnc54)[C@H](O)[C@@H]3O)[C@@H](O)[C@H]2O)C=CC1 [NADH]
NADH:APAD+ and NADH:O2 oxidoreduction, absorbance 340-380 nm [1]: the consistent rates of the flavin-localized NADH:APAD^+ reaction

Cc1cc2nc3c(=O)[nH]c(=O)nc-3n(C[C@H](O)[C@H](O)[C@H](O)COP(=O)(O)O)c2cc1C [FMN]
cryo-EM structure [2]: canonical CI subunits that contain the FMN in the active site for NADH oxidation

CC(=O)c1ccc[n+]([C@@H]2O[C@H](COP(=O)(O)OP(=O)(O)OC[C@H]3O[C@@H](n4cnc5c(N)ncnc54)[C@H](O)[C@@H]3O)[C@@H](O)[C@H]2O)c1 [APAD^+]
NADH:APAD+ oxidoreduction in proteoliposomes [3]: the consistent rates of the flavin-localized NADH:APAD^+ reaction

COC1=C(OC)C(=O)C(C/C=C(\C)CC/C=C(\C)CC/C=C(\C)CC/C=C(\C)CC/C=C(\C)CC/C=C(\C)CC/C=C(\C)CC/C=C(\C)CC/C=C(\C)CCC=C(C)C)=C(C)C1=O [Q10]
NADH:O2 oxidoreduction with AOX, nanodiscs (Pp-CI (Q10-binding site)): confirming the rapid redox-cycling turnover of the Q10 contained in the ND bilayer

NC(=O)C1=CN([C@@H]2O[C@H](COP(=O)(O)OP(=O)(O)OC[C@H]3O[C@@H](n4cnc5c(N)ncnc54)[C@H](OP(=O)(O)O)[C@@H]3O)[C@@H](O)[C@H]2O)C=CC1 [NADPH]
cryo-EM structure (NDUFA9 subunit of Pp-CI): bound in NDUFA9

B1: NUQM, supernumerary interdomain bridge subunit of Pichia pastoris complex I (natural protein)
chain: ALATIRNDLKLNFRFKADVLEKNVIRSILAETKNLEIDNKDKDLDEFKLYDLLSKMIKQRQDSAAIYLKEGSPDRFRQTGWNELREVDYITKYLEALPVASAEEIEAKVEPIVQSVLEEEGELKSPKEIFSRIPWKVVNQDWQASEGAVKNTVLRLYNLYKTDA
percent of flavoprotein-containing particles with NUQM bound [4]: 68.1% | percent of outward-facing, flavoprotein-bound particles with NUQM bound [5]: 77%
